Where a chain is given by its changes, count along the chain named. “And” between values parts separate entries of the source, which are not always exact repeats. Equal values may be shown once. “Also recorded” adds a separate entry of the source.
Legend:
Assay in all cases: ATP dose response (EC50), TEVC in oocytes
Assay type in all cases: cell-based
hP2X1 K249A = molecular target: T1, hP2X1 K249A (Homo sapiens, UniProt P51575, K249A); details: for Normalized Current: hP2X1 K249A
T1 construct: hP2X1 mRNA that was made from linearized full-length wild-type or mutant pcDNA 3.1x; expressed in transfected cells; host or cells: Xenopus laevis oocytes (mRNA injection)
T1 sequence (P51575 1-399 K249A): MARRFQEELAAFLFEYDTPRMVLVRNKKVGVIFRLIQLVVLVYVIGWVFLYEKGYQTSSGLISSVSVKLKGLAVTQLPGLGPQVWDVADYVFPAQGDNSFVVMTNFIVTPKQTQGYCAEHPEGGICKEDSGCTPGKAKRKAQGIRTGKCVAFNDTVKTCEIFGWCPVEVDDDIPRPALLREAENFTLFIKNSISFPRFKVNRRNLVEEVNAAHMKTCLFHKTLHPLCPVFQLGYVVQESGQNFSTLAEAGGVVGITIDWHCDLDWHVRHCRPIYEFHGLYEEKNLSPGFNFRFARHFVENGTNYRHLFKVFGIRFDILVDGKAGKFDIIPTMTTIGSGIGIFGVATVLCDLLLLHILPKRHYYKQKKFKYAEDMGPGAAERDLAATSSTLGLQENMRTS
Method: (§1) Oocytes were purchased defolliculated from Ecocyte Bioscience in Barth’s Solution (88 mM NaCl, 1 mM KCl, 0.82 mM MgSO4, 0.33 mM Ca(NO3)2, 0.41 mM CaCl2, 2.4 mM NaHCO3, 5 mM Tris-HCl) supplemented with penicillin (100 U/mL) and streptomycin (100 µg/mL). Xenopus laevis oocytes were then injected with 50 nL of 100 ng/μL hP2X1 mRNA that was made from linearized full-length wild-type or mutant pcDNA 3.1x according to the protocol provided in the mMessage mMachine kit (Invitrogen). Injected oocytes were allowed to express for ~20 hours at 18 °C before recording was performed.
(§2) Data acquisition was performed using the Oocyte Clamp OC-725C amplifier and pClamp 8.2 software. Buffers were applied using a gravity fed RSC-200 Rapid Solution Changer that flows at ~5 mL/min. All experiments use Sutter filamented glass 10 cm in length with an inner diameter of 0.69 mm and an outer diameter of 1.2 mm to impale oocytes and clamp the holding voltage at −60 mV. Experiments were recorded in buffer containing 10 mM HEPES (pH 7.4), 140 mM NaCl, 5 mM KCl, 2 mM CaCl2, 2 mM MgCl2, and 10 mM glucose.
(§3) Excitatory responses to a dilution series of ATP between 6.4 nM and 10 mM were examined across the different mutants. Each evoked response was normalized to an initial ATP-induced current evoked by the following concentrations: 500 µM ATP for R292A, 2 mM ATP for K309A, and 100 µM ATP for the remaining mutants and wild-type receptor. The data was fit in Prism 9 using the nonlinear regression named “EC50, x is concentration” to afford EC50 values. This value was then averaged amongst each singular condition and reported as an average plus or minus the standard deviation.

hP2X1 R139A = molecular target: T2, hP2X1 R139A (Homo sapiens, UniProt P51575, R139A)
T2 construct: hP2X1 mRNA that was made from linearized full-length wild-type or mutant pcDNA 3.1x; expressed in transfected cells; host or cells: Xenopus laevis oocytes (mRNA injection)
T2 sequence (P51575 1-399 R139A): T1 sequence (P51575 1-399 K249A) with R139A, A249K
Method: as §1, §2, §3

hP2X1 K136A = molecular target: T3, hP2X1 K136A (Homo sapiens, UniProt P51575, K136A)
T3 construct: hP2X1 mRNA that was made from linearized full-length wild-type or mutant pcDNA 3.1x; expressed in transfected cells; host or cells: Xenopus laevis oocytes (mRNA injection)
T3 sequence (P51575 1-399 K136A): T1 sequence (P51575 1-399 K249A) with K136A, A249K
Method: as §1, §2, §3

hP2X1 R292A = molecular target: T4, hP2X1 R292A (Homo sapiens, UniProt P51575, R292A)
T4 construct: hP2X1 mRNA that was made from linearized full-length wild-type or mutant pcDNA 3.1x; expressed in transfected cells; host or cells: Xenopus laevis oocytes (mRNA injection)
T4 sequence (P51575 1-399 R292A): T1 sequence (P51575 1-399 K249A) with A249K, R292A
Method: as §1, §2, §3

Nc1ncnc2c1ncn2[C@@H]1O[C@H](COP(=O)(O)OP(=O)(O)OP(=O)(O)O)[C@@H](O)[C@H]1O [ATP]
apparent affinity (EC50) of ATP, effect of mutation (hP2X1 K249A; hP2X1 K249A vs wild-type, TEVC): do not appear to significantly change; also recorded: no major effect; also recorded: moderately increases | Normalized Current (hP2X1 K249A; [ATP] 1.000E-04 M): 1.03 and 1.005 and 0.9647 | Normalized Current (hP2X1 K249A; [ATP] 2.000E-05 M): 1.005 and 0.9326 and 0.8353 | Normalized Current (hP2X1 K249A; [ATP] 4.000E-06 M): 0.7721 and 0.7584 and 0.7231 | Normalized Current (hP2X1 K249A; [ATP] 8.000E-07 M): 0.6172 and 0.5832 and 0.5545 | EC50 of ATP (hP2X1 R139A; TEVC): no effect; also recorded: without affecting | Normalized Current (hP2X1 R139A; [ATP] 1.000E-04 M): 0.9464 and 0.9017 and 0.9178 | Normalized Current (hP2X1 R139A; [ATP] 2.000E-05 M): 0.8825 and 0.6805 and 0.736 | Normalized Current (hP2X1 R139A; [ATP] 4.000E-06 M): 0.6603 and 0.5057 and 0.6077 | Normalized Current (hP2X1 R139A; [ATP] 5.000E-04 M): 1.062 and 0.93 and 1.008 | EC50 of ATP (hP2X1 K136A; TEVC): did not affect | Normalized Current (hP2X1 K136A; [ATP] 1.000E-04 M): 0.9825 and 0.9019 and 0.8989 | Normalized Current (hP2X1 K136A; [ATP] 2.000E-05 M): 0.8446 and 0.8328 and 0.7216 | Normalized Current (hP2X1 K136A; [ATP] 4.000E-06 M): 0.7216 and 0.6921 and 0.6232 | Normalized Current (hP2X1 K136A; [ATP] 5.000E-04 M): 1.035 and 0.9912 and 0.9735 | Normalized Current (hP2X1 K136A; [ATP] 8.000E-07 M): 0.3703 and 0.2936 and 0.2241 | EC50 of ATP (hP2X1 R292A; TEVC): impacted | Normalized Current (hP2X1 R292A; [ATP] 1.000E-04 M): 0.772 and 0.7521 and 0.7236 | Normalized Current (hP2X1 R292A; [ATP] 1.600E-07 M): 0.000000 | Normalized Current (hP2X1 R292A; [ATP] 2.000E-05 M): 0.2643 and 0.1768 and 0.1722 | Normalized Current (hP2X1 R292A; [ATP] 2.500E-03 M): 1.04 and 1.022 and 0.9381 | Normalized Current (hP2X1 R292A; [ATP] 5.000E-04 M): 0.9697 and 0.8815 and 0.878
